Data from patent US20260285850A1, “SUBSTITUTED OXAZOLIDINONES AND IMIDAZOLINONES AS HERBICIDES” (FMC CORPORATION, priority 2023, published 2026).

Columns and labels:
Type in all cases: in vivo
soybean (Glycine max) [1] = experiment: Test A postemergence application, visual injury rating 0-100; details: 10 days
In short: (§1)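 Visual injury ratings (0, no effect; 100, complete control) were assigned relative to untreated plants 10 days after treatment. Test chemicals, formulated with a surfactant-containing non-phytotoxic solvent, were applied in loam-sand soil either as a directed soil spray before emergence or to emerged plants, and plants were kept in a greenhouse.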

[2] = test system: horseweed (Erigeron canadensis); experiment: as above; details: 10 days
In short: as §1

[3] = test system: blackgrass (Alopecurus myosuroides); experiment: as above; details: 10 days
In short: as §1

[4] = test system: green foxtail (Setaria viridis); experiment: as above; details: 10 days
In short: as §1

[5] = test system: barnyardgrass (Echinochloa crus-galli); experiment: as above; details: 10 days
In short: as §1

[6] = test system: oat, wild (wild oat, Avena fatua); experiment: as above; details: 10 days
In short: as §1

corn (Zea mays) [7] = experiment: as above; details: 10 days
In short: as §1

[8] = test system: palmer (palmer amaranth, palmer pigweed, Amaranthus palmeri); experiment: as above; details: 10 days
In short: as §1

[9] = test system: wheat (Triticum aestivum); experiment: as above; details: 10 days
In short: as §1

[10] = test system: galium (catchweed bedstraw, Galium aparine); experiment: as above; details: 10 days
In short: as §1

[11] = test system: ragweed (common ragweed, Ambrosia artemisiifolia); experiment: as above; details: 10 days
In short: as §1

kochia (Bassia scoparia) [12] = experiment: as above; details: 10 days
In short: as §1

[13] = test system: ryegrass, Italian (italian ryegrass, Lolium multiflorum); experiment: as above; details: 10 days
In short: as §1

soybean (Glycine max) [14] = experiment: Test A preemergence soil spray, visual injury rating 0-100; details: 10 days, 0 = no effect, 100 = complete control
In short: as §1

[15] = test system: blackgrass (Alopecurus myosuroides); experiment: as above; details: 10 days, 0 = no effect, 100 = complete control
In short: as §1

[16] = test system: green foxtail (Setaria viridis); experiment: as above; details: 10 days, 0 = no effect, 100 = complete control
In short: as §1

[17] = test system: barnyardgrass (Echinochloa crus-galli); experiment: as above; details: 10 days, 0 = no effect, 100 = complete control
In short: as §1

[18] = test system: oat, wild (wild oat, Avena fatua); experiment: as above; details: 10 days, 0 = no effect, 100 = complete control
In short: as §1

corn (Zea mays) [19] = experiment: as above; details: 10 days, 0 = no effect, 100 = complete control
In short: as §1

[20] = test system: palmer (palmer amaranth, palmer pigweed, Amaranthus palmeri); experiment: as above; details: 10 days, 0 = no effect, 100 = complete control
In short: as §1

[21] = test system: wheat (Triticum aestivum); experiment: as above; details: 10 days, 0 = no effect, 100 = complete control
In short: as §1

[22] = test system: ragweed (common ragweed, Ambrosia artemisiifolia); experiment: as above; details: 10 days, 0 = no effect, 100 = complete control
In short: as §1

kochia (Bassia scoparia) [23] = experiment: as above; details: 10 days, 0 = no effect, 100 = complete control
In short: as §1

[24] = test system: ryegrass, Italian (italian ryegrass, Lolium multiflorum); experiment: as above; details: 10 days, 0 = no effect, 100 = complete control
In short: as §1

[25] = test system: barnyardgrass (Echinochloa crusgalli); experiment: Test B flooded paddy test, visual plant response rating 0-100; details: 250 g ai/ha, Flood, applied to paddy water, evaluated after 13 days
In short: (§2)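 Visual scores versus untreated controls were recorded 13 days after treatment of greenhouse-held plants. At the 2-leaf stage, pots were flooded 3 cm above the soil surface and compounds added straight to the water.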

rice (Oryza sativa) = experiment: as above; details: 250 g ai/ha, Flood, applied to paddy water, evaluated after 13 days
In short: as §2

[26] = test system: sedge, umbrella (small-flower umbrella sedge, Cyperus difformis); experiment: as above; details: 250 g ai/ha, Flood, applied to paddy water, evaluated after 13 days
In short: as §2

[27] = test system: ducksalad (Heteranthera limosa); experiment: as above; details: 250 g ai/ha, Flood, applied to paddy water, evaluated after 13 days
In short: as §2

[28] = 31 g ai/ha, postemergence, 0 = no effect, 100 = complete control
[29] = Postemergence, 125 g ai/ha, 0 is no effect, 100 is complete control

Structure (SMILES): CCOC(=O)C1C=CC(NC(=O)C2(C)CN(c3cc(F)cc(Cl)c3)C(=O)O2)C1 (stereo not shown) [Compound 3]
- Soybean plant response rating (0-100) (soybean (Glycine max) [1]; [28]): 90
- Soybean plant response rating (0 to 100 scale) (soybean (Glycine max) [1]; [29]): 90
- Horseweed plant response rating (0-100) [2, 28]: 50
- Horseweed plant response rating (0 to 100 scale) [2, 29]: 80
- Blackgrass plant response rating (0-100) [3, 28]: 80
- Blackgrass plant response rating (0 to 100 scale) [3, 29]: 90
- Foxtail, Green plant response rating (0-100) [4, 28]: 90
- Foxtail, Green plant response rating (0 to 100 scale) [4, 29]: 90
- Barnyardgrass plant response rating (0-100) [5, 28]: 100
- Barnyardgrass plant response rating (0 to 100 scale) [5, 29]: 100
- Oat, Wild plant response rating (0-100) [6, 28]: 90
- Oat, Wild plant response rating (0 to 100 scale) [6, 29]: 90
- Corn plant response rating (0-100) (corn (Zea mays) [7]; [28]): 100
- Corn plant response rating (0 to 100 scale) (corn (Zea mays) [7]; [29]): 100
- Amaranth, Palmer plant response rating (0-100) [8, 28]: 50
- Amaranth, Palmer / Pigweed, Palmer plant response rating (0 to 100 scale) [8, 29]: 70
- Wheat plant response rating (0-100) [9, 28]: 90
- Wheat plant response rating (0 to 100 scale) [9, 29]: 90
- Galium plant response rating (0-100) [10, 28]: 80
- Galium plant response rating (0 to 100 scale) [10, 29]: 90
- Ragweed plant response rating (0-100) [11, 28]: 50
- Ragweed plant response rating (0 to 100 scale) [11, 29]: 80
- Kochia plant response rating (0-100) (kochia (Bassia scoparia) [12]; [28]): 70
- Kochia plant response rating (0 to 100 scale) (kochia (Bassia scoparia) [12]; [29]): 70
- Ryegrass, Italian plant response rating (0-100) [13, 28]: 80
- Ryegrass, Italian plant response rating (0 to 100 scale) [13, 29]: 90
- Soybean plant response rating (0-100) (soybean (Glycine max) [14]; 31 g ai/ha): 20
- Soybean plant response rating (0 to 100 scale) (soybean (Glycine max) [14]; 125 g ai/ha): 80
- Blackgrass plant response rating (0-100) ([15]; 31 g ai/ha): 0
- Blackgrass plant response rating (0 to 100 scale) ([15]; 125 g ai/ha): 70
- Foxtail, Green plant response rating (0-100) ([16]; 31 g ai/ha): 30
- Foxtail, Green plant response rating (0 to 100 scale) ([16]; 125 g ai/ha): 100
- Barnyardgrass plant response rating (0-100) ([17]; 31 g ai/ha): 90
- Barnyardgrass plant response rating (0 to 100 scale) ([17]; 125 g ai/ha): 100
- Oat, Wild plant response rating (0-100) ([18]; 31 g ai/ha): 10
- Oat, Wild plant response rating (0 to 100 scale) ([18]; 125 g ai/ha): 90
- Corn plant response rating (0-100) (corn (Zea mays) [19]; 31 g ai/ha): 50
- Corn plant response rating (0 to 100 scale) (corn (Zea mays) [19]; 125 g ai/ha): 50
- Amaranth, Palmer plant response rating (0-100) ([20]; 31 g ai/ha): 80
- Amaranth, Palmer plant response rating (0 to 100 scale) ([20]; 125 g ai/ha): 100
- Wheat plant response rating (0-100) ([21]; 31 g ai/ha): 50
- Wheat plant response rating (0 to 100 scale) ([21]; 125 g ai/ha): 90
- Ragweed plant response rating (0-100) ([22]; 31 g ai/ha): 10
- Ragweed plant response rating (0 to 100 scale) ([22]; 125 g ai/ha): 30
- Kochia plant response rating (0-100) (kochia (Bassia scoparia) [23]; 31 g ai/ha): 70
- Kochia plant response rating (0 to 100 scale) (kochia (Bassia scoparia) [23]; 125 g ai/ha): 100
- Ryegrass, Italian plant response rating (0-100) ([24]; 31 g ai/ha): 50
- Ryegrass, Italian plant response rating (0 to 100 scale) ([24]; 125 g ai/ha): 90
- Plant response rating, Barnyardgrass (0 to 100 scale, 0 is no effect and 100 is complete control) [25]: 95
- Plant response rating, Rice (0 to 100 scale, 0 is no effect and 100 is complete control) (rice (Oryza sativa)): 70
- Plant response rating, Sedge, Umbrella (0 to 100 scale, 0 is no effect and 100 is complete control) [26]: 100
- Plant response rating, Ducksalad (0 to 100 scale, 0 is no effect and 100 is complete control) [27]: 90
